These results are taken from patent US20260364080A1, “PYRAZOLO-PYRIMIDINONE COMPOUNDS FOR USE IN METHODS OF INHIBITING WEE1 A KINASE” (Acrivon Therapeutics, Inc., priority 2023, published 2026).

Where two headings read alike, the source gives them in different places. A value given as a limit tells only on which side of the number the result lay.

Assay [1] deals with T1, Myt1 kinase (recombinant PMYT-1) (Homo sapiens, UniProt Q99640).
T1 construct: full length PMYT-1 was expressed by baculovirus in insect cells; purchased Invitrogen A30984; host or cells: insect cells (baculovirus)
T1 sequence (Q99640 1-499): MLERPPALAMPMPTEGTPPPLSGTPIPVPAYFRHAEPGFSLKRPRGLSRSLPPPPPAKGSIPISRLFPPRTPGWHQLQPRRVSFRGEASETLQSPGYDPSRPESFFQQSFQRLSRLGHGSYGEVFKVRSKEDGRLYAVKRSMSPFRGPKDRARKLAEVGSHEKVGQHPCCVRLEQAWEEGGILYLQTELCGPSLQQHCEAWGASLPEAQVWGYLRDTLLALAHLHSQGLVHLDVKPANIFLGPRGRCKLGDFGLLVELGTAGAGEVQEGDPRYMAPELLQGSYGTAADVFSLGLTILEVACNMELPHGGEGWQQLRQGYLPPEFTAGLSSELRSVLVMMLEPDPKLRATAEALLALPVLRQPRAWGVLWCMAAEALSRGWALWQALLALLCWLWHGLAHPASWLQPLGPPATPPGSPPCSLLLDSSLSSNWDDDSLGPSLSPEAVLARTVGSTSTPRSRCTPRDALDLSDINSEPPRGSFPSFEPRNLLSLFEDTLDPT
The assay can be described thus: Myt1 kinase binding assay (LanthaScreen Eu Kinase Binding Assay). The following applies: 3 nM tracer 178, 2.5 nM PMYT-1, 1 nM Eu-labeled antibody; read-out: Myt1 kinase Binding IC50. Here is the method:
(§1) To calculate the emission ratio, the acceptor/tracer emission ([…]) was divided by the antibody/donor emission ([…]) and the average of duplicate measurement was used for calculations. Data plotting, analysis of binding, and curve fitting was done using Excel add-in XLfit version 5.5.0.5 (IDBS, Guildford, United Kingdom). […] “NT” means not tested.
We used a LanthaScreen Europium (Eu) Kinase Binding Assay to determine the binding affinities (IC50) of compounds to Myt1 kinase. […] “NT” designates that the compound was not tested in this assay.

For assay [2], the target named is T2, recombinant human Wee1A kinase (Homo sapiens, UniProt P30291).
T2 construct: full length Wee1 kinase was expressed by baculovirus in insect cells; purchased Invitrogen PV3817; host or cells: insect cells (baculovirus)
The assay can be described thus: Wee1A kinase binding assay (LanthaScreen Eu time-resolved FRET). Here is the method: This time resolved-FRET binding assay was performed in white 384-well low volume plates (Greiner, cat #784075), at room temperature in kinase buffer A (KBA; Invitrogen cat #PV3189), consisting of 50 mM HEPES-NaOH (pH 7.5), 0.01% Brij-35, 10 mM MgCl2, and 1 mM EGTA. 5 μL of compound (diluted in reaction buffer, to 1% DMSO) were added to various wells in the plate, followed by 5 μL each of recombinant human Wee1A kinase (full length Wee1 kinase was expressed by baculovirus in insect cells using a N-terminal GST tag (MW: 99.1 kDa) (Invitrogen cat #PV3817) and LanthaScreen Eu-anti-GST antibody (Invitrogen, cat #PV5594). After this, 5 μL of kinase tracer 178 (Invitrogen, cat #PV5593) was added to the plate and the plate was incubated for 60 minutes at room temperature. The final assay conditions in each well were: 30 nM tracer 178, 5 nM Wee1A kinase and 2 nM Eu-labeled antibody in total assay volume of 15 μL. An Envision 2104 (Perkin-Elmer) Plate Reader with the following time-resolve fluorescence setting was used for performing LanthaScreen kinase binding assay. • Excitation 320 nm (30 nm bandpass) • Kinase Tracer Emission 665 nm (10 nm bandpass) • LanthaScreen Eu-anti-Tag Antibody Emission 615 nm (10 nm bandpass) • Dichroic Mirror Instrument dependent • Delay Time 100 μs • Integration Time 200 μs
as §1

In assay [3] the target is T3, Wee1A kinase (CDK1 Tyr15 phosphorylation in ACHN renal cell carcinoma cells) (Homo sapiens, UniProt P30291).
T3 construct: pCDK1 Tyr15 immunofluorescence read-out
The assay is described as follows: High-content imaging of pCdk1 Y15, Wee1A kinase target engagement in ACHN cells. It is filed as cell-based. How it is done:
Each of an ACHN renal cell carcinoma cell line (ATCC) and a DAOY medulloblastoma cell line, and an A427 lung cancer line were cultured in Minimum Essential Medium Eagle supplemented with 10% fetal calf serum (Sigma), 1% Penicillin-Streptomycin and 10 mM HEPES buffer (HyClone). Cell cultures were kept in a humidified incubator at 37 °C and 5% CO2. Cells were routinely tested for Mycoplasma contamination.
For target engagement assessment of Wee1A kinase inhibition, high-content imaging of ACHN renal cell carcinoma cells was used for quantification of CDK1 phosphorylated on tyrosine 15 by immunofluorescence (“IF”). 20,000 cells per well were seeded in tissue culture treated 96 well plates and treated with compounds at concentrations ranging from 7 to 5,000 nM or from 0.3 to 200 nM for 4h. Cells were fixated for 15 minutes in 4% paraformaldehyde solution, washed in PBS and permeabilized using 0.2% Triton X-100. Blocking was performed for 1 h at RT using Blocker FL Fluorescent Blocking Buffer (Thermo Scientific), thereafter cells were incubated with primary antibody (rabbit anti-pCDK1 Y^15, #4539, Cell Signaling Technology) at 4 °C ON. Alexa Fluor Plus 647 labelled goat anti-rabbit (A32733, Thermo Scientific) was used as secondary antibody. After washing in PBS, nuclei were stained with DAPI solution for 10 min at RT, protected from light. Cells were imaged using an ImageXpress Pico automated imaging system and CellReporter Xpress software (Molecular Devices). The percentage of cells with nuclear positivity for pCdk1 Y^15 compared to DMSO control was determined for each well and drug dose response curves and EC50 values were calculated and visualized using GraphPad Prism. Target engagement for Wee1A kinase can also be measured using the same AlphaLISA assay in OVCAR3 cells, an ovarian cancer cell line. NIH:OVCAR-3 (OVCAR3) cells are cultured in RPMI-1640 medium supplemented with 0.01 mg/ml insulin, 20% FBS, 1% Penicillin-Streptomycin and 10 mM HEPES buffer. 14,000 cells per well are seeded into 96 well tissue culture plates in full medium. Twenty-four hours post seeding, cells are treated with compound for 4 hours at concentrations ranging from 0.017 nM to 1000 nM.

Where [4] appears, read: 30 nM tracer 178, 5 nM Wee1A kinase, 2 nM Eu-labeled antibody, 60 minutes at room temperature, read-out: Wee1A kinase Binding IC50.
[5] abbreviates: 4 h treatment, nuclear positivity for pCdk1 Y15 vs DMSO control, read-out: CDK1 Tyr15 Phosphorylation EC50.
[6] abbreviates: read-out: CDK1 Tyr15 Phosphorylation EC50, 4 h treatment, nuclear positivity for pCdk1 Y15 vs DMSO control.

T2 sequence (P30291 whole entry): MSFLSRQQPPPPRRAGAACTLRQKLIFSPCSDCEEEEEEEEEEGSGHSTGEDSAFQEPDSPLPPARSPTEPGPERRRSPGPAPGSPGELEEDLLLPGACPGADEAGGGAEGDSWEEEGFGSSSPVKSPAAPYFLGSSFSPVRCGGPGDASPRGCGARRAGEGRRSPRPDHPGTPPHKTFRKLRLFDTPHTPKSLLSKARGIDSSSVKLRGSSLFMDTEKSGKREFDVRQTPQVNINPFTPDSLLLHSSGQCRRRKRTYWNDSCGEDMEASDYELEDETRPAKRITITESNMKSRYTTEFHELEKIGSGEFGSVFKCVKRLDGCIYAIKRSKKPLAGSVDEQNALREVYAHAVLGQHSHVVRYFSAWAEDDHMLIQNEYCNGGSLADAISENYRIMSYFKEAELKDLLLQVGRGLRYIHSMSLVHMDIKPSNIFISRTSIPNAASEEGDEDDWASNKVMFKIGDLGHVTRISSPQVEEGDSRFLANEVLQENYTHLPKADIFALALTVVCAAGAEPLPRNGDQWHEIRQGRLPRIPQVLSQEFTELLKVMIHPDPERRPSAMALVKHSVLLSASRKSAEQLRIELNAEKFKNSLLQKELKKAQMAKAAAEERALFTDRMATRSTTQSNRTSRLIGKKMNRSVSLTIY
T3 sequence (P30291 whole entry): as above

Regarding `C=CCn1c(=O)c2cnc(Nc3ccc(Cl)cc3)nc2n1-c1cccc(N[C@H]2CCCN(C)C2)n1` [Compound 167, 1-{6-[(S)-1-methyl-3-piperidylamino]-2-pyridyl}-2-allyl-6-(p-chlorophenylamino)-1,2-dihydro-3H-1,2,5,7-tetraazainden-3-one], the concentration for half-maximal inhibition (IC50) in assay [1] was in the range of 100 to 500 nM; in assay [2] (setting [4]), 10 to 100 nM.

Regarding `C=CCn1c(=O)c2cnc(Nc3ccc(Cl)cc3)nc2n1-c1cccc(N(C)[C@@H]2CCCN(C)C2)n1` [Compound 163, (R)-2-allyl-6-((4-chlorophenyl)amino)-1-(6-(methyl(1-methylpiperidin-3-yl)amino)pyridin-2-yl)-1,2-dihydro-3H-pyrazolo[3,4-d]pyrimidin-3-one], the IC50 in assay [1] was over 500 nM; in assay [2] (setting [4]), 10 to 100 nM.

Turning to `C=CCn1c(=O)c2cnc(Nc3cnn(C)c3)nc2n1-c1cccc(OC2CCNCC2)c1` [Compound 224, 2-allyl-6-(1-methyl-4-pyrazolylamino)-1-[m-(4-piperidyloxy)phenyl]-1,2-dihydro-3H-1,2,5,7-tetraazainden-3-one], the concentration for a half-maximal effect (EC50) in assay [3] (setting [5]) is over 1000 nM. Moreover, in assay [2] (setting [4]), the IC50 was under 10 nM.

For `C=CCn1c(=O)c2cnc(Nc3ccnc(C)c3)nc2n1-c1cccc(OC2CCNCC2)c1` [Compound 222, 2-allyl-6-(2-methyl-4-pyridylamino)-1-[m-(4-piperidyloxy)phenyl]-1,2-dihydro-3H-1,2,5,7-tetraazainden-3-one], the EC50 in assay [3] (setting [5]) is over 1000 nM. Besides, the IC50 in assay [2] (setting [4]) was under 10 nM.

Regarding `C=CCn1c(=O)c2cnc(Nc3ccc4c(cnn4C)c3)nc2n1-c1cccc(OC2CCN(C)C(C)C2)n1` [Compound 402, rel-2-allyl-1-(6-(((2R,4R)-1,2-dimethylpiperidin-4-yl)oxy)pyridin-2-yl)-6-((1-methyl-1H-indazol-5-yl)amino)-1,2-dihydro-3H-pyrazolo[3,4-d]pyrimidin-3-one], in assay [3] (setting [5]), the EC50 is under 100 nM.

On to `C=CCn1c(=O)c2cnc(Nc3ccc4cnn(C)c4c3)nc2n1-c1cccc(OC2CCNCC2)n1` [Compound 359, 2-allyl-6-((1-methyl-1H-indazol-6-yl)amino)-1-(6-(piperidin-4-yloxy)pyridin-2-yl)-1,2-dihydro-3H-pyrazolo[3,4-d]pyrimidin-3-one], for which the concentration giving a half-maximal response (EC50) in assay [3] (setting [5]) is under 100 nM. The IC50 in assay [2] (setting [4]) was under 10 nM.

As for `CCn1c(=O)c2cnc(Nc3ccc4c(cnn4C)c3)nc2n1-c1cccc(N(C)C2CCNCC2)n1` [Compound 286, 1-[6-(N-methyl-N-4-piperidylamino)-2-pyridyl]-2-ethyl-6-(1-methyl-1H-indazol-5-ylamino)-1,2-dihydro-3H-1,2,5,7-tetraazainden-3-one], the EC50 in assay [3] (setting [6]) is over 1000 nM. The half-maximal inhibitory concentration (IC50) in assay [2] was under 10 nM.

Regarding `C=CCn1c(=O)c2cnc(Nc3ccc(Cl)cc3)nc2n1-c1cccc(O[C@H]2CCCN(C)C2)n1` [Compound 162, 6-[(4-chlorophenyl)amino]-1-(6-{[(3S)-1-methylpiperidin-3-yl]oxy}pyridin-2-yl)-2-(prop-2-en-1-yl)-1H,2H,3H-pyrazolo[3,4-d]pyrimidin-3-one], the 50% inhibitory concentration (IC50) fell in the range of 100 to 500 nM in assay [1] and 10 to 100 nM in assay [2] (setting [4]).

Take `C=CCn1c(=O)c2cnc(Nc3ccc4ncccc4c3)nc2n1-c1cccc(OC2CCN(C)CC2)n1` [Compound 325, 2-allyl-1-[6-(1-methyl-4-piperidyloxy)-2-pyridyl]-6-(6-quinolylamino)-1,2-dihydro-3H-1,2,5,7-tetraazainden-3-one]: the IC50 in assay [1] is 20 to 100 nM; in assay [2] (setting [4]), under 10 nM.

Turning to `C=CCn1c(=O)c2cnc(Nc3ccc4c(cnn4C)c3)nc2n1-c1cccc(N(C)C2CCN(C)CC2)c1` [Compound 225, 1-{m-[N-methyl (1-methyl-4-piperidyl)amino]phenyl}-2-allyl-6-(1-methyl-1H-indazol-5-ylamino)-1,2-dihydro-3H-1,2,5,7-tetraazainden-3-one], the 50% effective concentration (EC50) in assay [3] (setting [6]) is over 1000 nM. In addition, the half-maximal inhibitory concentration (IC50) in assay [2] is under 10 nM.

Consider `C=CCn1c(=O)c2cnc(Nc3cnn(C)c3)nc2n1-c1cccc(OC2CCN(C)CC2)c1` [Compound 221, 2-allyl-1-[m-(1-methyl-4-piperidyloxy)phenyl]-6-(1-methyl-4-pyrazolylamino)-1,2-dihydro-3H-1,2,5,7-tetraazainden-3-one], for which the EC50 in assay [3] (setting [5]) fell in the range of 500 to 1000 nM. Also, the concentration for half-maximal inhibition (IC50) in assay [2] (setting [4]) is under 10 nM.

`C=CCn1c(=O)c2cnc(Nc3cnn(C)c3)nc2n1-c1cccc(O[C@@H]2C[C@@H]3CC[C@H]2CN3C)n1` [Compound 295, 6-[(1-methyl-1H-pyrazol-4-yl)amino]-1-(6-{[(1S,4S,5R)-2-methyl-2-azabicyclo[2.2.2]octan-5-yl]oxy}pyridin-2-yl)-2-(prop-2-en-1-yl)-1H,2H,3H-pyrazolo[3,4-d]pyrimidin-3-one]: the IC50 in assay [2] (setting [4]) lay within 10 to 100 nM.

For `C=CCn1c(=O)c2cnc(Nc3cnn(C)c3)nc2n1-c1cccc(O[C@H]2C[C@@H]3CC[C@H]2CN3C)n1` [Compound 294, 6-[(1-methyl-1H-pyrazol-4-yl)amino]-1-(6-{[(1S,4S,5S)-2-methyl-2-azabicyclo[2.2.2]octan-5-yl]oxy}pyridin-2-yl)-2-(prop-2-en-1-yl)-1H,2H,3H-pyrazolo[3,4-d]pyrimidin-3-one], in assay [2] (setting [4]), the half-inhibitory concentration (IC50) was 10 to 100 nM.

As for `C=CCn1c(=O)c2cnc(Nc3ccnc(C)c3)nc2n1-c1cccc(OC2CCN(C)CC2)c1` [Compound 219, 2-allyl-1-[m-(1-methyl-4-piperidyloxy)phenyl]-6-(2-methyl-4-pyridylamino)-1,2-dihydro-3H-1,2,5,7-tetraazainden-3-one], in assay [3] (setting [5]), the EC50 lay in the range of 100 to 500 nM. Further, the IC50 in assay [2] (setting [4]) was under 10 nM.

In the case of `C=CCn1c(=O)c2cnc(Nc3ccc4c(cnn4C)c3)nc2n1-c1cccc(OC2CCN(C3COC3)CC2)n1` [Compound 349, 2-allyl-6-((1-methyl-1H-indazol-5-yl)amino)-1-(6-((1-(oxetan-3-yl)piperidin-4-yl)oxy)pyridin-2-yl)-1,2-dihydro-3H-pyrazolo[3,4-d]pyrimidin-3-one], the EC50 in assay [3] (setting [5]) is under 100 nM. The half-maximal inhibitory concentration (IC50) in assay [2] (setting [4]) was under 10 nM.
